The values that follow come from PMC8231992, “Protease Substrate-Independent Universal Assay for Monitoring Digestion of Native Unmodified Proteins” (International Journal of Molecular Sciences, 2021).

The test deals with T1, papain (Carica papaya, UniProt P00784).
T1 sequence (P00784 134-345): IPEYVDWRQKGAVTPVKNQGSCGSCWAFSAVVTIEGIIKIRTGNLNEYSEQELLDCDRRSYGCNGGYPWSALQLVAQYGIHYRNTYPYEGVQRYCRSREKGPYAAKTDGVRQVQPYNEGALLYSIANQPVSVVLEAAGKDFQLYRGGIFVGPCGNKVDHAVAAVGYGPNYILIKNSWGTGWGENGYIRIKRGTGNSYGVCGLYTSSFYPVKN
Nature of the test: protein-probe time-resolved luminescence digestion assay, heat-denatured carbonic anhydrase substrate ([…] with native substrate). It counts as biochemical.

As usually defined, the IC50 is the midpoint of a concentration-inhibition curve. Low values mean greater potency in that assay, high ones weaker potency in that assay. The molecule `CC(C)C[C@H](NC(=O)[C@H]1O[C@@H]1C(=O)O)C(=O)NCCCCN=C(N)N` [E-64] had an IC50 of 8.9 ± 0.9 nM.
